Experimental data: patent EP0253662B1, “Pharmaceutical compositions” (ED. GEISTLICH SÖHNE AG FÜR CHEMISCHE INDUSTRIE, priority 1986, dated 1988)
Converted amounts (≈) assume the structure as drawn.

Experiments:
[1] = intravenous infusion tolerance (vagotonic side effects); type: in vivo
From the text: This is a surprising effect of considerable value in ensuring that taurolidine can be given intravenously at a rapid rate of infusion, for example in cases of endotoxin shock. In general, the overall intravenous tolerance of taurolidine is increased by the presence of glucose. The same advantages apply also to taurultam.

water-solubility = type: physicochemical; settings: in water
Description: However, the water-solubility of both compounds is relatively low, namely I g/litre in the case of taurolidine and 8 g/litre in the case of taurultam. Relatively large quantities of the compounds are required where toxaemia is well established and even where the compounds are administered in large volumes by intravenous infusion, low solubility can limit their use. In particular, during treatment of patients suffering from septic shock and consequent renal insufficiency, administration of significant quantities of liquid (after an initial period of volume compensation) is contra-indicated and the intravenous infusion solution should be as concentrated as possible. Where glucose is present, this is also beneficial in such cases in order to support the brain cells.

solubility (water-solubility) [µg/mL] | SMILES | vagotonic side effects, such as meiosis, lachrymation, salivation, bradycardia and excitation ([1]; 2% aqueous taurolidine containing polyvinylpyrrolidone, administered intravenously, high rates of infusion) | vagotonic effects ([1]; administered in glucose solution rather than polyvinylpyrrolidone, intravenously)
– | O=S1(=O)CCN(CN2CCS(=O)(=O)NC2)CN1 [taurolidine] | short duration vagotonic side effects occur | such vagotonic effects are not observed
8000 (≈ 58.7 mM) | O=S1(=O)CCNCN1 [taurultam] | – | –
